Data published in a compilation of properties of binary mixtures (doi:10.1016/j.molliq.2016.01.085).

Experiment: xn = mol fraction of the nth substance listed
Details: 101 kPa

CCCOCCO + CCCC[n+]1ccn(C)c1.F[P-](F)(F)(F)(F)F
speed of sound [m/s]
Details	x1 = 0.1468	x1 = 0.1945	x1 = 0.3063	x1 = 0.3953	x1 = 0.5119	x1 = 0.6168	x1 = 0.702	x1 = 0.8043	x1 = 0.8873	x1 = 1
298.15 K	1431.8	1427.1	1414	–	1384.2	1366.5	–	1331.5	1316.4	–
303.15 K	1419	1414	–	1387.9	1369.3	1351	1334.9	–	1299.9	1283.7
308.15 K	1406.6	–	1387.1	1374.1	1354.7	1335.6	1319.1	–	1283.5	1266.4
313.15 K	1394.5	1389.3	1374.4	1360.8	1340.3	1320.3	–	1283.2	1267.2	1249.2
318.15 K	1382.8	1377.1	1361.6	1347.3	–	–	1288.1	1267.3	1250.9	1231.9
323.15 K	–	1365.3	1349.2	1334.2	1312	–	1272.7	1251.5	1234.9	1215

CCCC[n+]1ccn(C)c1.F[P-](F)(F)(F)(F)F + CCCOCCO
x2 = 0
Details	speed of sound [m/s]
298.15 K	1443.8
308.15 K	1419.8
323.15 K	1385.6
